Usually melting point stands for the temperature of the solid-liquid transition.

We go through four molecules from patent US7265227B2, “Piperidine derivatives useful as modulators of chemokine receptor activity” (AstraZeneca AB, priority 2001, dated 2007).

Data set [1] relates to eotaxin mediated human eosinophil chemotaxis. Briefly: Human eosinophil chemotaxis. It is filed as cell-based. The settings on record: human eosinophils from peripheral blood; eotaxin 0.1 to 100 nM; 1 hr at 37° C. The method, then:
Human Eosinophil Chemotaxis
Human eosinophils were isolated from EDTA anticoagulated peripheral blood as previously described (Hansel et al., J. Immunol. Methods, 1991, 145, 105-110). The cells were resuspended at 10×10^6 ml^−1 in RPMI containing 200 IU/ml penicillin, 200 μg/ml streptomycin sulfate and supplemented with 10% HIFCS, at room temperature.
Eosinophils (700 μl) were pre-incubated for 15 mins at 37° C. with 7 μl of either vehicle or compound (100× required final concentration in 10% DMSO). The chemotaxis plate (ChemoTx, 3μ, pore, Neuroprobe) was loaded by adding 28 μl of a concentration of eotaxin (0.1 to 100 nM) containing a concentration of a compound according to the Examples or solvent to the lower wells of the chemotaxis plate. The filter was then placed over the wells and 25 μl of eosinophil suspension were added to the top of the filter. The plate was incubated for 1 hr at 37° C. in a humidified incubator with a 95% air/5% CO2 atmosphere to allow chemotaxis.
The medium, containing cells that had not migrated, was carefully aspirated from above the filter and discarded. The filter was washed once with phosphate buffered saline (PBS) containing 5 mM EDTA to remove any adherent cells. […] The number of eosinophils migrating was quantified according to the method of Strath et al., J. Immunol. […]

The target in data set [2] is T1, H1 (Cavia porcellus, UniProt P31389).
T1 construct: the trachea was cut into six ring segments each three cartilage bands wide and then suspended in 20 ml organ baths; from tissue; host or cells: guinea-pig isolated trachea (Dunkin-Hartley)
Briefly: Guinea-pig isolated trachea (histamine concentration effect curves). The note with it: guinea-pig tracheal rings; histamine E/[A] curve after 60 minutes incubation with test compound. How it is done: Guinea-pig Isolated Trachea
(See for example, Harrison, R. W. S., Carswell, H. & Young, J. M. (1984) European J. Pharmacol., 106, 405-409.)
Male albino Dunkin-Hartley guinea-pigs (250 g) were killed by cervical dislocation and the whole trachea removed. After clearing the adherent connective tissue, the trachea was cut into six ring segments each three cartilage bands wide and then suspended in 20 ml organ baths containing Krebs-Henseleit solution of the following composition (MM): NaCl 117.6, NaH2PO4 0.9, NaHCO3 25.0, MgSO4 1.2, KCl 5.4, CaCl2 2.6 and glucose 11.1. The buffer was maintained at 37° C. and gassed with 5% CO2 in oxygen. Indomethacin (2.8 μM) was added to the Krebs solution to prevent development of smooth muscle tone due to the synthesis of cyclo-oxygenase products. […] Changes in isometric force were recorded on 2-channel Sekonic flat bed chart recorders. […]
Contraction responses were recorded as a percentage of the first curve maximum. […]
Experimental E/[A] curve data were analysed for the purposes of estimating the potencies (p[A50] values) of histamine in the absence and presence of the test compound. Affinity (pA2) values of test compounds were subsequently calculated using the following equation: log(r−1)=log[B]+pA2 where r=[A]50 in presence of test compound/[A]50 in absence of antagonist and [B] is the concentration of test compound.

T1 sequence (P31389 whole entry): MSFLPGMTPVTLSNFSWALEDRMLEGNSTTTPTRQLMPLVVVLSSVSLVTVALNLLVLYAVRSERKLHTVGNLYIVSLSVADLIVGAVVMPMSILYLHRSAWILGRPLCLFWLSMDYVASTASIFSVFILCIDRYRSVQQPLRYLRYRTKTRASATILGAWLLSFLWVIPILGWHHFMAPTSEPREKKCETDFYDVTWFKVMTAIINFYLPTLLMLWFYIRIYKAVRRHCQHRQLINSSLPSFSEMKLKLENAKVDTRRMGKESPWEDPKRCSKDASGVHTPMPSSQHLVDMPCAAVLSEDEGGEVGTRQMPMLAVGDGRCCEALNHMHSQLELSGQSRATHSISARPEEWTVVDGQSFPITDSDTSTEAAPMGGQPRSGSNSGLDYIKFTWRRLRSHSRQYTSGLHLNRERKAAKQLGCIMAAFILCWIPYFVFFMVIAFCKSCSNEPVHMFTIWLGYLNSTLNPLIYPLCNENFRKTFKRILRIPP

`Cc1ccc(S(=O)(=O)NC(=O)CCN2CCC(Oc3ccc(Cl)c(Cl)c3)CC2)cc1` [Example 20, N-[3-[4-(3,4-dichlorophenoxy)-1-piperidinyl]-1-oxopropyl]4-methyl-benzenesulfonamide] gave a melting point of 177 to 179 °C.

`O=C(NS(=O)(=O)CCN1CCC(Oc2ccc(Cl)c(Cl)c2)CC1)c1ccccc1Cl` [Example 19, N-(2-Chlorobenzoyl)-4-(3,4-dichlorophenoxy)-1-piperidineethanesulfonamide]: the melting point lay within 237 to 239 °C.

`O=C(NS(=O)(=O)NCCCN1CCC(Oc2ccc(Cl)c(Cl)c2)CC1)c1ccccc1` [Example 18, N-benzoyl-N′-[3-[4-(3,4-dichlorophenoxy)-1-piperidinyl]propyl]-sulfamide] yielded a melting point of 93 to 106 °C.

Molecule `Cc1ccc(S(=O)(=O)NC(=O)NCCN2CCC(Oc3ccc(Cl)c(Cl)c3)CC2)cc1` [Example 1, N-[[[2-[4-(3,4-dichlorophenoxy)-1-piperidinyl]ethyl]amino]carbonyl]-4-methyl-benzenesulfonamide] returned a melting point of 179.6 to 180.3 °C. In addition, the “antagonism of the eotaxin mediated human eosinophil chemotaxis” value in data set [1] is on record as “antagonist”. Also, in data set [2], the H1 antagonism entry is listed as “H1 antagonist”.
